Measured values published in PubChem BioAssay (NCI).
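GI50 = concentration required for 50% inhibition of growth. The concentration for full growth arrest is given as TGI.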

How the values were obtained:
Test in all cases: DTP human tumour cell line panel, 384-well format
A549 NSCLC = system: A549 NSCLC
ACHN renal = system: ACHN renal
HL-60(TB) leukemia = system: HL-60(TB) leukemia
HS 578T breast = system: HS 578T breast
MALME-3M melanoma = system: MALME-3M melanoma
MDA-MB-468 breast = system: MDA-MB-468 breast
NCI-H322M lung = system: NCI-H322M lung
NCI-H522 lung = system: NCI-H522 lung
OVCAR-5 ovarian = system: OVCAR-5 ovarian
SNB-75 CNS = system: SNB-75 CNS
T-47D breast = system: T-47D breast
UACC-257 melanoma = system: UACC-257 melanoma
UO-31 renal = system: UO-31 renal

Cn1c(Nc2ccc(C(F)(F)F)cc2)nc2cc(Oc3ccnc(-c4ncc(C(F)(F)F)[nH]4)c3)ccc21
GI50 (A549 NSCLC): 0.254 µM | TGI (A549 NSCLC): 12.4 µM | GI50 (ACHN renal): 0.0205 µM | TGI (ACHN renal): 11.3 µM | GI50 (HL-60(TB) leukemia): 0.0386 µM | TGI (HL-60(TB) leukemia): 1.07 µM | GI50 (HS 578T breast): 0.0391 µM | TGI (HS 578T breast): 6.25 µM | GI50 (MALME-3M melanoma): 0.0144 µM | TGI (MALME-3M melanoma): 0.0443 µM | GI50 (MDA-MB-468 breast): 0.0741 µM | TGI (MDA-MB-468 breast): 0.825 µM | GI50 (NCI-H322M lung): 0.106 µM | TGI (NCI-H322M lung): 12.6 µM | GI50 (NCI-H522 lung): 0.0556 µM | TGI (NCI-H522 lung): 11 µM | GI50 (OVCAR-5 ovarian): 1.43 µM | TGI (OVCAR-5 ovarian): 13.1 µM | GI50 (SNB-75 CNS): 0.0711 µM | TGI (SNB-75 CNS): 13 µM | GI50 (T-47D breast): 0.274 µM | TGI (T-47D breast): 9.06 µM | GI50 (UACC-257 melanoma): 0.137 µM | TGI (UACC-257 melanoma): 1.51 µM | GI50 (UO-31 renal): 0.332 µM | TGI (UO-31 renal): 12.6 µM

CN1CC[C@@H](c2c(O)cc(O)c3c(=O)cc(-c4ccc(C(F)(F)F)cc4Cl)oc23)[C@@H]1CO
GI50 (A549 NSCLC): 16.7 µM | TGI (A549 NSCLC): 31.7 µM | GI50 (ACHN renal): 12.6 µM | TGI (ACHN renal): 25.7 µM | GI50 (HL-60(TB) leukemia): 9.56 µM | TGI (HL-60(TB) leukemia): 21.9 µM | GI50 (HS 578T breast): 13.4 µM | TGI (HS 578T breast): 26.3 µM | GI50 (MALME-3M melanoma): 12.2 µM | TGI (MALME-3M melanoma): 24.6 µM | GI50 (MDA-MB-468 breast): 11.8 µM | TGI (MDA-MB-468 breast): 24.1 µM | GI50 (NCI-H322M lung): 15.5 µM | TGI (NCI-H322M lung): 29.2 µM | GI50 (NCI-H522 lung): 14 µM | TGI (NCI-H522 lung): 27.1 µM | GI50 (OVCAR-5 ovarian): 16.5 µM | TGI (OVCAR-5 ovarian): 37.3 µM | GI50 (SNB-75 CNS): 12.6 µM | TGI (SNB-75 CNS): 25.2 µM | GI50 (T-47D breast): 13.8 µM | TGI (T-47D breast): 26.8 µM | GI50 (UACC-257 melanoma): 12.4 µM | TGI (UACC-257 melanoma): 24.9 µM | GI50 (UO-31 renal): 10.8 µM | TGI (UO-31 renal): 23.2 µM
